Patent publication US20180000085A1, “USE OF PICOLINAMIDE COMPOUNDS WITH FUNGICIDAL ACTIVITY” (DOW AGROSCIENCES LLC, priority 2014, published 2018)

Assays:
Puccinia triticina = experiment: Wheat brown rust (PUCCRT) disease control on wheat seedlings; type: in vivo; parameters: key to PUCCRT 3DC, HV activity at 100 ppm (% control rating) / PUCCRT disease control, 3DC / PUCCRT 1DP disease control rating, HV activity / PUCCRT 3DC disease control rating, HV activity / PUCCRT 3DC, LV activity at 125.1 g/H (% Control rating) / PUCCRT 1DP, LV activity at 125.1 g/H (% Control rating) / PUCCRT 3DC disease control rating, LV activity at 125.1 g/H / PUCCRT 1DP disease control rating, LV activity at 125.1 g/H / PUCCRT 3DC disease control rating, HV activity at 100 ppm / PUCCRT 1DP disease control rating, HV activity at 100 ppm / HV activity at 100 ppm PUCCRT 3DC (disease control rating) / LV activity at 125.1 g/H PUCCRT 1DP (disease control rating) / LV activity at 125.1 g/H PUCCRT 3DC (disease control rating): A: > 80; B: ≤ 80; C: Not Tested; D: No Activity Observed in the Reported Assay; details: low volume application, 125.1 g/H; for PUCCRT 1DP, LV activity at 125.1 g/H (% Control rating): 1 Day Protectant; for PUCCRT 3DC, LV activity at 125.1 g/H (% Control rating): 3 Day Curative
Zymoseptoria tritici = experiment: Leaf blotch of wheat (SEPTTR) disease control on wheat seedlings; type: in vivo; parameters: key to SEPTTR 1DP, HV activity at 100 ppm (% control rating) / SEPTTR 3DC, HV activity at 100 ppm (% control rating) / SEPTTR disease control, 1DP / SEPTTR disease control, 3DC / SEPTTR 1DP disease control rating, HV activity / SEPTTR 3DC disease control rating, HV activity / SEPTTR 3DC, LV activity at 125.1 g/H (% Control rating) / SEPTTR 1DP, LV activity at 125.1 g/H (% Control rating) / SEPTTR 1DP disease control rating, LV activity at 125.1 g/H / SEPTTR 3DC disease control rating, LV activity at 125.1 g/H / SEPTTR 3DC disease control rating, HV activity at 100 ppm / SEPTTR 1DP disease control rating, HV activity at 100 ppm / HV activity at 100 ppm SEPTTR 3DC (disease control rating) / HV activity at 100 ppm SEPTTR 1DP (disease control rating) / LV activity at 125.1 g/H SEPTTR 1DP (disease control rating) / LV activity at 125.1 g/H SEPTTR 3DC (disease control rating): A: > 80; B: ≤ 80; C: Not Tested; D: No Activity Observed in the Reported Assay; details: low volume application, 125.1 g/H; for SEPTTR 1DP, LV activity at 125.1 g/H (% Control rating): 1 Day Protectant; for SEPTTR 3DC, LV activity at 125.1 g/H (% Control rating): 3 Day Curative

Compound | PUCCRT 1DP, LV activity at 125.1 g/H (% Control rating) (Puccinia triticina) | PUCCRT 3DC, LV activity at 125.1 g/H (% Control rating) (Puccinia triticina) | SEPTTR 1DP, LV activity at 125.1 g/H (% Control rating) (Zymoseptoria tritici) | SEPTTR 3DC, LV activity at 125.1 g/H (% Control rating) (Zymoseptoria tritici)
CCCOC[C@@H](Oc1ccccc1)[C@H](C)OC(=O)[C@H](CC)NC(=O)c1nccc(OC)c1OC(C)=O [Cmpd 484] | B (≤ 80) | A (> 80) | B (≤ 80) | D
COc1ccnc(C(=O)N[C@@H](C)C(=O)O[C@@H](C)[C@@H](COc2ccccc2)Oc2ccccc2)c1OC(C)=O [Cmpd 488] | A (> 80) | A (> 80) | A (> 80) | B (≤ 80)
CC[C@H](NC(=O)c1nccc(OC)c1OC(C)=O)C(=O)O[C@@H](C)[C@@H](COc1ccccc1)Oc1ccccc1 [Cmpd 489] | A (> 80) | A (> 80) | A (> 80) | A (> 80)
COCC[C@H](Cc1ccc(F)cc1)[C@@H](OC(=O)C(C)C)[C@H](C)OC(=O)[C@H](C)NC(=O)c1nccc(OC)c1OCOC(C)=O [Cmpd 499] | A (> 80) | A (> 80) | D | B (≤ 80)
CC[C@@H](CCC(C)C)[C@H](OCC1CC1)[C@H](C)OC(=O)[C@H](C)NC(=O)c1nccc(OC)c1OCOC(C)=O [Cmpd 503] | A (> 80) | A (> 80) | B (≤ 80) | A (> 80)
CC[C@@H](CCC(C)C)[C@H](OCC1CC1)[C@H](C)OC(=O)[C@H](C)NC(=O)c1nccc(OC)c1OC(C)=O [Cmpd 504] | A (> 80) | A (> 80) | B (≤ 80) | B (≤ 80)
CCCO[C@@H](C1CC1)[C@@H](Oc1ccccc1)[C@H](C)OC(=O)[C@H](C)NC(=O)c1nccc(OC)c1OCOC(C)=O [Cmpd 505] | A (> 80) | A (> 80) | B (≤ 80) | B (≤ 80)
CC[C@H](CCC(C)C)[C@@H](OCC1CC1)[C@H](C)OC(=O)[C@H](C)NC(=O)c1nccc(OC)c1OCOC(C)=O [Cmpd 506] | A (> 80) | B (≤ 80) | B (≤ 80) | B (≤ 80)
CC[C@H](CCC(C)C)[C@@H](OCC1CC1)[C@H](C)OC(=O)[C@H](C)NC(=O)c1nccc(OC)c1OC(C)=O [Cmpd 507] | B (≤ 80) | B (≤ 80) | B (≤ 80) | B (≤ 80)
CC[C@H](CC1CCCC1)[C@@H](OCC1CC1)[C@H](C)OC(=O)[C@H](C)NC(=O)c1nccc(OC)c1OC(C)=O [Cmpd 508] | B (≤ 80) | B (≤ 80) | B (≤ 80) | B (≤ 80)
CC[C@H](CC1CCCC1)[C@@H](OCC1CC1)[C@H](C)OC(=O)[C@H](C)NC(=O)c1nccc(OC)c1OCOC(C)=O [Cmpd 509] | B (≤ 80) | B (≤ 80) | B (≤ 80) | D
CCCO[C@@H]([C@H](C)OC(=O)[C@H](C)NC(=O)c1nccc(OC)c1OCOC(C)=O)[C@H](CC)Oc1ccccc1 [Cmpd 510] | A (> 80) | A (> 80) | A (> 80) | B (≤ 80)
CCCO[C@@H]([C@H](C)OC(=O)[C@H](C)NC(=O)c1nccc(OC)c1OC(C)=O)[C@H](CC)Oc1ccccc1 [Cmpd 511] | A (> 80) | A (> 80) | B (≤ 80) | A (> 80)
CCCO[C@@H]([C@H](C)OC(=O)[C@H](C)NC(=O)c1nccc(OC)c1OCOC(=O)COCC)[C@H](CC)Oc1ccccc1 [Cmpd 512, (S)-(2S,3S,4S)-4-phenoxy-3-propoxyhexan-2-yl-2-(3-((2-ethoxyacetoxy)methoxy)-4-methoxypicolinamido)propanoate] | A (> 80) | A (> 80) | B (≤ 80) | A (> 80)
C=CC[C@@H](OCc1ccccc1)[C@H](C)OC(=O)[C@H](C)NC(=O)c1nccc(OC)c1OCOC(C)=O [Cmpd 516] | A (> 80) | A (> 80) | B (≤ 80) | D
C=CC[C@@H](OCc1ccccc1)[C@H](C)OC(=O)[C@H](C)NC(=O)c1nccc(OC)c1OCOC(=O)COCC [Cmpd 517] | A (> 80) | A (> 80) | A (> 80) | D
COc1ccnc(C(=O)NC(C)C(=O)OC(C)COCc2ccccc2)c1OCOC(C)=O (centres unmarked) [Cmpd 520] | B (≤ 80) | B (≤ 80) | B (≤ 80) | D
CCCOCC(C)OC(=O)C(C)NC(=O)c1nccc(OC)c1OC(C)=O (centres unmarked) [Cmpd 521] | D | D | D | D
CCCOCC(C)OC(=O)C(C)NC(=O)c1nccc(OC)c1OCOC(C)=O (centres unmarked) [Cmpd 522] | D | D | B (≤ 80) | B (≤ 80)
CCCOCC(C)OC(=O)C(C)NC(=O)c1nccc(OC)c1OCOC(=O)C(C)C (centres unmarked) [Cmpd 523] | D | D | D | D
COc1ccnc(C(=O)NC(C)C(=O)OC(C)COc2ccccc2)c1OC(C)=O (centres unmarked) [Cmpd 524] | D | B (≤ 80) | B (≤ 80) | B (≤ 80)
COc1ccnc(C(=O)NC(C)C(=O)OC(C)COc2ccccc2)c1OCOC(C)=O (centres unmarked) [Cmpd 525] | D | B (≤ 80) | B (≤ 80) | D
COCC[C@@H](OCc1ccccc1)[C@H](C)OC(=O)[C@H](C)NC(=O)c1nccc(OC)c1OCOC(C)=O [Cmpd 526] | D | B (≤ 80) | B (≤ 80) | B (≤ 80)
COc1ccnc(C(=O)NC(C)C(=O)OC(C)COCC2CC2)c1OCOC(C)=O (centres unmarked) [Cmpd 527] | B (≤ 80) | B (≤ 80) | D | A (> 80)
COc1ccnc(C(=O)NC(C)C(=O)OC(C)COCC2CC2)c1OCOC(=O)C(C)C (centres unmarked) [Cmpd 528] | D | D | D | B (≤ 80)
COc1ccnc(C(=O)NC(C)C(=O)OC(C)COCC2CC2)c1OC(C)=O (centres unmarked) [Cmpd 529] | D | D | B (≤ 80) | B (≤ 80)
